# Source: US9006218B2, “Nucleoside phosphonate salts” (Chimerix Inc., priority 2010, dated 2015)
# Structures can show the parent of a compound that is named as a salt. Where two headings read alike, the source gives them in different places.
# Columns and labels:
# [1] = system: XMRV collected from 22Rv1 prostate cancer cells; assay: Anti-XMRV cytoprotection assay in PG-4 cells (XTT); assay type: cell-based, xenotropic murine retrovirus (XMRV)
# Procedure: The test materials were evaluated in PG-4 cells against XMRV collected from the cell-free supernatant of 22Rv1 prostate cancer cells using a complete dose response curve. The experimental details and results are discussed below.
# Test materials (CMX157 K^+ salt and Tenofovir) were solubilized at 40 mM and 10 mM in water, respectively, and stored at −20° C. Test materials were evaluated using a 1 μM high test concentration and serially diluted in half-log increments for the in vitro antiviral assay (SOW104-11-01). A second assay was performed (SOW104-11-02) using a 1 μM high test concentration for CMX157, but an increased high test concentration of 100 μM for tenofovir. Ribavirin was purchased from Sigma and used as a positive control compound.
# (§1) PG-cells (ATCC# CRL-2032; feline astrocytes) were passaged in T-75 flasks in McCoy's 5A medium supplemented with 10% heat inactivated fetal bovine serum, 2 mmol/L L-glutamine, 100 U/ml penicillin and 100 μg/ml streptomycin prior to use in the antiviral assay. On the day preceding the assay, cells were split 1:2 to assure they were in an exponential growth phase at the time of infection. Total cell and viability quantification were performed using a hemocytometer and Trypan Blue dye exclusion. Cell viability was to be greater than 95% for the cells to be utilized in the assay. The cells were resuspended at 5×10^4 cells per ml (SOW104-11-01) or 1×10^5 cells per mL (SOW104-11-02) in tissue culture medium and added to flat bottom microtiter plates in a volume of 100 μI for overnight incubation at 37° C./5% CO2.
# (§2) Serial half-log dilutions were performed. Media was removed from the cell monolayer and 100 μL of 2× concentrations of compound-containing media (DMEM supplemented with 2% FBS, 2 mmol/L L-glutamine, 100 U/ml penicillin and 100 μg/ml streptomycin for SOW104-11-01 or PG-4 cell culture medium for SOW104-11-02) was transferred to the 96-well microtiter plate.
# The XMRV virus was collected from the cell-free supernatant of 22Rv1 human prostate cancer cells (ATCC# CRL-2505). A pretitered aliquot of virus was removed from the freezer (−80° C.) and allowed to thaw in a biological safety cabinet. The virus was diluted into 2% FBS assay medium such that the amount of virus added to each well in a volume of 100 μl is the amount determined to yield 85 to 95% cell killing at six days post infection (based on optical density values) for SOW104-11-01. PG-4 cell culture medium was used to dilute virus in a volume of 100 μl is the amount determined to yield 85 to 95% cell killing at six days post infection for SOW104-11-02.
# (§3) Inhibition of virus induced cytopathic effects (CPE) was quantified by measuring the reduction of the tetrazolium dye XTT (2,3-bis(2-methoxy-4-nitro-5-sulfophenyl)-5-[(phenylamino)carbonyl]-2H-tetrazoIium hydroxide). XTT in metabolically active cells is metabolized by the mitochondrial enzyme NADPH oxidase to a soluble formazan product. XTT solution was prepared daily as a stock of 1 mg/mL in PBS. Phenazine methosulfate (PMS) solution was prepared at 0.15 mg/mL in PBS and stored in the dark at −20° C. XTT/PMS stock was prepared immediately before use by adding 40 μL of PMS per mL of XTT solution. 50 μL of XTT/PMS was added to each well of the plate and the plate incubated for 4 h at 37° C. The 4 h incubation has been empirically determined to be within the linear response range for XTT dye reduction with the indicated numbers of cells for each assay. Adhesive plate sealers were used in place of the lids, the sealed plate was inverted several times to mix the soluble formazan product and the plate was read at 450 nm (650 nm reference wavelength) with a Molecular Devices SpectraMax Plus 384 96 well plate format spectrophotometer.
# Raw data was collected from the Softmax Pro 4.6 software and imported into a Microsoft Excel XLfit4 spreadsheet to analyze (four parameter curve fit analysis) and graph the data. […] The EC50, EC90, TC50 and TC90 are expressed means±standard deviation.
# PG-4 cells = assay: Cytotoxicity in PG-4 cells (XTT, TC50); assay type: cell-based, feline
# Procedure: as §1, §2, §3
# (§4) Raw data was collected from the Softmax Pro 4.6 software and imported into a Microsoft Excel XLfit4 spreadsheet to analyze (four parameter curve fit analysis) and graph the data. Using Microsoft Excel, EC50 and EC90 (50% and 90% inhibition of virus replication), TC50 and TC90 (50% and 90% reduction in cell viability) and a therapeutic index (TI, TC50/EC50 and TC90/EC90) are provided. The EC50, EC90, TC50 and TC90 are expressed means±standard deviation. The significant figure is three digits. Raw data for both antiviral activity and toxicity with a graphic representation of the data are provided in a printout summarizing the individual compound activity.
# [2] = assay type: physicochemical; settings: general statement, see Example 2
# Procedure: Stability testing was performed for CMX157 and its salts to investigate the quality of the compound over time under various environments. Accelerated conditions were established using an Isotemp Vacuum Oven set at either 40° C. or 60° C. If high humidity was needed, a saturated solution of sodium chloride created an air state containing about 75% humidity.
# For determining the amount of CMX157 present in the samples within the stability study, a reference standard of a known purity was used. […] For analysis, 40 mg of samples and standards are dissolved in 100.0 mL diluent (80 H2O: 20 Methanol: 2 NH4OH). Separation of the drug substance and impurities was achieved using a mobile phase gradient (Table 1) on a Shimadzu A20 HPLC with a Phenomenex Synergi Polar RP 4μ 150×3 mm column. By comparing the areas for the samples at wavelength of 259 nm (kmax) to that of the reference standard, the percentage of CMX157 was determined.
# [3] = Cytotoxicity in PG-4 cells (XTT, TC50); assay type: cell-based, feline; settings: cat
# Procedure: as §1, §2, §3, §4
# XMRV = assay: Anti-XMRV activity assay in LNCaP cells (6 day assay); assay type: cell-based
# Description: (§5) Specifically, the anti-XMRV activity assay was completed in LNCaP cells (6 day assay) according to the methods described in PLoS ONE, volume 5 (4), April 2010, e9948, pages 1-7.
# [4] = Cytotoxicity in LNCaP cells; assay type: cell-based; settings: human
# Procedure: as §5
# (§6) The cytotoxicity of CMX157 in LNCaP cells was also tested.
# LNCaP cells = assay: Cytotoxicity in LNCaP cells; assay type: cell-based; settings: LNCaP cells
# Procedure: as §5, §6
# [5] = third determination listed in Table 3, run not given
# [6] = unidentified retrovirus, 22Rv1, in Mus musculus, read-out: PG-4/XMRV EC50, assay SOW104-11-01: 5×10^4 cells per ml, DMEM 2% FBS
# [7] = unidentified retrovirus, 22Rv1, in Mus musculus, read-out: PG-4/XMRV EC50, assay SOW104-11-02: 1×10^5 cells per mL, PG-4 cell culture medium
# [8] = unidentified retrovirus, 22Rv1, in Mus musculus, read-out: PG-4/XMRV EC50, third determination listed in Table 3, run not stated
# [9] = LNCaP cells, read-out: Cytotoxicity (IC50) LNCaP cells
structure (smiles),measurement,setting,value
"NC(=O)c1ncn([C@@H]2O[C@H](CO)[C@@H](O)[C@H]2O)n1 [Ribavirin, 1-β-D-ribofuranosyl-1,2,4-triazole-3-carboxamide]",Therapeutic Index (TC50/EC50),[1]; assay SOW104-11-01,6.5
same,EC50,"[1]; unidentified retrovirus, 22Rv1, in Mus musculus, read-out: PG-4/XMRV EC50, Ribavirin in μg/mL, control of SOW104-11-01",10.1 µg/mL
same,PG-4 TC50,PG-4 cells; cat,65.2 mg/L
"CCCCCCCCCCCCCCCCOCCCOP(=O)(O)CO[C@H](C)Cn1cnc2c(N)ncnc21 [CMX157, 3-(hexadecyloxy)propyl hydrogen ((R)-1-(6-amino-9H-purin 9-yl)propan-2-yloxy)methylphosphonate]","stability in words, free acid versus salts",[2],relatively unstable
same,EC50 lower than AZT,"[1]; XMRV in vitro, versus AZT",approximately 20 fold
same,EC50 lower than TFV,"[1]; XMRV in vitro, versus TFV",~800 fold
same,Therapeutic Index (TC50/EC50),[1]; assay SOW104-11-01,10.0
same,Therapeutic Index (TC50/EC50),[1]; assay SOW104-11-02,>333.0
same,Therapeutic Index (TC50/EC50),[1]; [5],97.8
same,EC50,[1]; [6],0.04 µM
same,EC50,[1]; [7],0.003 µM
same,EC50,[1]; [8],0.06 µM
same,CC50,"[3]; assay SOW104-11-01, read-out: PG-4 TC50",0.4 µM
same,CC50,"[3]; assay SOW104-11-02, read-out: PG-4 TC50",> 1 µM
same,CC50,"[3]; third determination listed in Table 3, run not given, read-out: PG-4 TC50",5.9 µM
same,EC50,XMRV; 144 h,0.0031 ± 0.0021 µM
same,EC90,XMRV; 144 h,0.037 ± 0.016 µM
same,IC50,[4]; [9],> 100 µM
"CC(C)OC(=O)OCOP(=O)(CO[C@H](C)Cn1cnc2c(N)ncnc21)OCOC(=O)OC(C)C [Tenofovir disoproxil fumarate, 2,4,6,8-Tetraoxa-5-phosphanonanedioic acid, 5-[[(1R)-2-(6-amino-9H-purin-9-yl)-1-methylethoxy]methyl]-, bis(1-methylethyl)ester, 5-oxide, (2E)-2-butenedioate (1:1)]",EC50,XMRV; 144 h,0.029 ± 0.026 µM
same,EC90,XMRV; 144 h,0.21 ± 0.15 µM
same,IC50,[4],87.4 µM
CC(C)(C)NC(=O)[C@@H]1CN(Cc2cccnc2)CCN1C[C@@H](O)C[C@@H](Cc1ccccc1)C(=O)N[C@H]1c2ccccc2C[C@H]1O [IDV (Indinavir)],Therapeutic Index (TC50/EC50),[1]; assay SOW104-11-02,2.7
same,EC50,[1]; [7],0.8 µM
same,CC50,[3]; PG-4 TC50,2.2 µM
"C[C@H](Cn1cnc2c(N)ncnc21)OCP(=O)(O)O [Tenofovir, (R)-9-(2-phosphonylmethoxypropyl)adenine]",EC50,"[1]; assay SOW104-11-01: 5×10^4 cells per ml, DMEM 2% FBS, read-out: PG-4/XMRV EC50",> 1 µM
same,Therapeutic Index (TC50/EC50),[1]; assay SOW104-11-02,>41.5
same,EC50,"[1]; assay SOW104-11-02: 1×10^5 cells per mL, PG-4 cell culture medium, read-out: PG-4/XMRV EC50",2.4 µM
same,Therapeutic Index (TC50/EC50),[1]; [5],>38.6
same,EC50,"[1]; third determination listed in Table 3, run not given, read-out: PG-4/XMRV EC50",2.6 µM
same,CC50,PG-4 cells; assay SOW104-11-01,> 1 µM
same,CC50,PG-4 cells; assay SOW104-11-02,> 100 µM
same,CC50,PG-4 cells; [5],> 100 µM
same,EC50,XMRV,4.5 ± 3.8 µM
same,EC90,XMRV,17.4 ± 9 µM
same,IC50,LNCaP cells,> 100 µM
"Cc1cn([C@H]2C[C@H](N=[N+]=[N-])[C@@H](CO)O2)c(=O)[nH]c1=O [AZT, 3′-azido-2′,3′-dideoxythymidine]",EC50,[1]; [6],0.8 µM
same,EC50,[1]; [7],0.07 µM
same,EC50,[1]; [8],0.6 µM
same,EC50,XMRV; 144 h,0.0081 ± 0.011 µM
same,EC90,XMRV; 144 h,0.055 ± 0.051 µM
same,IC50,[4],> 100 µM
Cc1nnc(C(=O)NC(C)(C)c2nc(C(=O)NCc3ccc(F)cc3)c(O)c(=O)n2C)o1 [Raltegravir],EC50,XMRV; 144 h,0.00054 ± 0.00057 µM
same,EC90,XMRV; 144 h,0.0032 ± 0.0029 µM
same,IC50,[4]; [9],> 100 µM
